Structures can show the parent of a compound that is named as a salt.

The first experiment deals with Candida albicans TIMM 1623. As to the kind of experiment: Antifungal action, microbroth dilution growth inhibition. It counts as cell-based. Conditions: Candida albicans, TIMM1623, 36 h, read-out: IC50 (50% growth inhibitory concentration). As to the method:
50% growth inhibitory concentration (IC50) was measured according to the microbroth dilution method, using, as a reference, the antifungal agent sensitivity test method proposed by the subcommittee for the antifungal agent sensitivity test, the Japanese Society for Medical Mycology (Japanese Journal of Medical Mycology, vol. 36, No. 1, pp. 62 to 64, 1995). Synthetic amino acid medium, fungal (SAAMF, manufactured by Nippon Bio-Supp. Center) was used as a medium for measurement of sensitivity. Candida albicans TIMM 1623 was cultured at 30° C. overnight on a Sabouraud agar plate medium (Eiken Chemical Co., Ltd.), and the obtained culture was suspended in a sterilized physiological saline solution. Thereafter, the suspension was diluted with a measurement medium such that the number of cells became 1×10^4 cells/ml, thereby producing an inoculum organism solution. 175 μl of a medium, 5 μl of a test agent (an agent diluted solvent in a growth control well), and 20 μl of the inoculum organism solution were added to a 96-well microplate (flat bottom, manufactured by Sumitomo Bakelite Co., Ltd.), and the mixture was stirred with a mixer. Thereafter, using a well Reader SME3400 (Scinics Co., Ltd.), an initial turbidity at a wavelength of 630 nm was measured. The above mixture was cultured at 35° C., and 36 hours later, a final turbidity was measure in the same manner. For an agent-diluted line, values were obtained by subtracting the initial turbidities from the final turbidities. For a growth control line also, values were obtained by subtracting the initial turbidities from the final turbidities. IC50 was defined as the lowest agent concentration among the test agent concentrations having a turbidity equal to or lower than the 50% value (IC50 calculated value) of a value obtained by subtracting the initial turbidity of a growth control from the final turbidity thereof.
Turning to `N=C(N)c1ccc(OCCCNCCNCCOc2ccc(C(=N)N)cc2)cc1` [Example 27, 4-[3-({2-[(2-{4-[amino(imino)methyl]phenoxy}ethyl)amino]ethyl}amino)propoxy]benzamidine Hydrochloride], the IC50 turned out to be 0.0313 µg/mL. On the same count and under the same terms, next, `N=C(N)c1ccc(OCCCN2CCN(CCCOc3ccc(C(=N)N)cc3)CC2)cc1` [Example 40-2, 4-{3-[4-(3-{4-[amino(imino)methyl]phenoxy}propyl)-1-piperazinyl]propoxy}benzamidine hydrochloride]: 0.0039 µg/mL. Still for that read-out and setting: next, `N=C(N)c1ccc(OCCCCCN)cc1` [Example 7, 4-[(5-aminopentyl)oxy]benzamidine Hydrochloride]: 0.5 µg/mL; `N=C(N)c1ccc(OCCCNCCN)cc1` [Example 10, 4-{3-[(2-aminoethyl)amino]propoxy}benzamidine hydrochloride]: 1 µg/mL; `N=C(N)c1ccc(OCCCN2CCN(CCCOc3ccc(C(=N)N)cc3F)CC2)c(F)c1` [Example 43, 4-{3-[4-(3-{4-[amino(imino)methyl]-2-fluorophenoxy}propyl)-1-piperazinyl]propoxy}-3-fluorobenzamidine Hydrochloride]: 0.0313 µg/mL. Still for that read-out and setting: next, `N=C(N)c1ccc(OCCCN)cc1` [Example 9-2, 4-(3-aminopropoxy)benzamidine Hydrochloride]: 0.5 µg/mL; `N=C(N)c1ccc(OCCCNCCCCCC(=O)O)cc1` [Example 3-2, 6-[(3-{4-[amino(imino)methyl]phenoxy}propyl)amino]hexanoic Acid Hydrochloride]: 0.5 µg/mL; `N=C(N)c1ccc(OCCCCN)cc1` [Example 5, 4-(4-aminobutoxy)benzamidine hydrochloride]: 0.25 µg/mL. Turning to `N=C(N)c1ccc(OCCCN2CCC(CCOc3ccc(C(=N)N)cc3)CC2)cc1` [Example 56, 4-{2-[1-(3-{4-[amino(imino)methyl]phenoxy}propyl)-4-piperidinyl]ethoxy}benzamidine Hydrochloride], the IC50 is 0.0039 µg/mL. Same read-out and setting: next, `N=C(N)c1ccc(OCCNCCNCCOc2ccc(C(=N)N)cc2)cc1` [Example 25, 4-[2-({2-[(2-{4-[amino(imino)methyl]phenoxy}ethyl)amino]ethyl}amino)ethoxy]benzamidine Hydrochloride]: 0.0156 µg/mL; `N=C(N)c1ccc(OCCCNCCNCCCOc2cccc(C(=N)N)c2)cc1` [Example 74, 3-[3-({2-[(3-{4-[amino(imino)methyl]phenoxy}propyl)amino]ethyl}amino)propoxy]benzamidine Hydrochloride]: 0.125 µg/mL. On the same count and under the same terms, next, `N=C(N)c1ccc(OCCCNCCCOc2ccc(C(=N)N)cc2)cc1` [Example 32, 4-{3-[(3-{4-[amino(imino)methyl]phenoxy}propyl)amino]propoxy}benzamidine Hydrochloride]: 0.0313 µg/mL; `N=C(N)c1ccc(OCCCNC2CCN(CCCOc3ccc(C(=N)N)cc3)C2)cc1` (stereo not shown) [Example 57, 4-(3-{3-[(3-{4-[amino (imino)methyl]phenoxy}propyl)amino]-1-pyrrolidinyl}propoxy)benzamidine Hydrochloride]: 0.0313 µg/mL; `N=C(N)c1ccc(OCCCN2CCN(CCCOc3ccc(C(=N)N)c(F)c3)CC2)cc1F` [Example 42, 4-{3-[4-(3-{4-[amino(imino)methyl]-3-fluorophenoxy}propyl)-1-piperazinyl]propoxy}-2-fluorobenzamidine Hydrochloride]: 0.0156 µg/mL. On the same count and under the same terms, next, `N=C(N)c1ccc(OCCCN2CCCN(CCCOc3ccc(C(=N)N)cc3)CC2)cc1` [Example 55, 4-{3-[4-(3-{4-[amino(imino)methyl]phenoxy}propyl)-1,4-diazepan-1-yl]propoxy}benzamidine Hydrochloride]: 0.0156 µg/mL; `N=C(N)c1ccc(OCCCCNCCNCCCCOc2ccc(C(=N)N)cc2)cc1` [Example 26, 4-[4-({2-[(4-{4-[amino(imino)methyl]phenoxy}butyl)amino]ethyl}amino)butoxy]benzamidine Hydrochloride]: 0.0625 µg/mL. With `N=C(N)c1ccc(OCCCNC2CCN(CCCOc3ccc(C(=N)N)cc3)CC2)cc1` [Example 58, 4-(3-{[1-(3-{4-[amino(imino)methyl]phenoxy}propyl)-4-piperidinyl]amino}propoxy)benzamidine Hydrochloride], the IC50 is 0.0313 µg/mL.

`CNCCCOc1ccc(C(=N)N)cc1` [Example 2, 4-[3-(methylamino)propoxy]benzamidine Hydrochloride]: the IC50 stood at 2 µg/mL.

As to `N=C(N)c1ccc(OCCCNCCNCCCOc2ccc(C(=N)N)cc2)cc1` [Example 24, 4-[3-({2-[(3-{4-[amino(imino)methyl]phenoxy}propyl)amino]ethyl}amino)propoxy]benzamidine hydrochloride], the IC50 was determined as 0.0078 µg/mL.

The same experiment, now with this note: TIMM1623; Candida albicans TIMM 1623, SAAMF medium, 35° C., 36 hours, turbidity at 630 nm; read-out: IC50 (50% growth inhibitory concentration).
Regarding `N=C(N)c1ccc(OCCCN2CCN(CCOc3ccc(C(=N)N)cc3)C(=O)C2=O)cc1` [Example 22, 4-{3-[4-(2-{4-[amino(imino)methyl]phenoxy}ethyl)-2,3-dioxo-1-piperazinyl]propoxy}benzamidine Acetate], the IC50 worked out at 2 µg/mL. Same read-out and setting: next, `N=C(N)c1ccc(OCCN2CCN(CCOc3ccc(C(=N)N)cc3)C(=O)C2=O)cc1` [Example 20, 4-{2-[4-(2-{4-[amino(imino)methyl]phenoxy}ethyl)-2,3-dioxo-1-piperazinyl]ethoxy}benzamidine Acetate]: 0.125 µg/mL; `N=C(N)c1ccc(OC/C=C/CN2CCN(CCCOc3ccc(C(=N)N)cc3)C(=O)C2=O)cc1` [Example 23, 4-({(E)-4-[4-(3-{4-[amino(imino)methyl]phenoxy}propyl)-2,3-dioxo-1-piperazinyl]-2-butenyl}oxy)benzamidine Acetate]: 2 µg/mL; `N=C(N)c1ccc(OCCCN2CCN(CCCOc3ccc(C(=N)N)cc3)C(=O)C2=O)cc1` [Example 19, 4-{3-[4-(3-{4-[amino(imino)methyl]phenoxy}propyl)-2,3-dioxo-1-piperazinyl]propoxy}benzamidine acetate]: 0.125 µg/mL. Same read-out and setting: next, `N=C(N)c1ccc(OCCCCN2CCN(CCCCOc3ccc(C(=N)N)cc3)C(=O)C2=O)cc1` [Example 21, 4-{4-[4-(4-{4-[amino(imino)methyl]phenoxy}butyl)-2,3-dioxo-1-piperazinyl]butoxy}benzamidine Acetate]: 0.25 µg/mL.

Another experiment concerns Candida albicans TIMM 1623. As to the kind of experiment: Therapeutic effect on mouse systemic Candida albicans infection, single subcutaneous dose, T/C survival. The class given is in vivo, ICR male mice. Conditions: 0.1 mg/kg, administered once into the dorsal subcutis 2 hours after infection; observed until the 14th day. As to the method: Candida albicans TIMM 1623 was cultured at 30° C. overnight on a Sabouraud agar plate medium (Eiken Chemical Co., Ltd.), and the obtained culture was suspened in a sterilized physiological saline solution. Thus, a fungal solution for infection, having a concentration of 1×10^7 cells/ml, was prepared. This fungal solution was inoculated in a concentration of 0.2 ml (2×10^6 CFU/mouse) into the tail vein of each of five ICR male mice (4-week-old, body weight of 20±1 g). 2 hours later, 0.2 ml of a solution, which had been prepared by dissolving a test compound into a sterilized physiological saline solution and setting the concentration at 0.01 mg/ml, was administered once into the dorsal subcutis of each mouse. To mice of a control group, an equal amount of a sterilized physiological saline solution was administered.
Viability of the mice was observed until the 14th day after the infection, and the cumulative survival rate (T/C) of the treatment group to the control group was calculated, and the obtained value was used as an index of the life-prolonging effect.
Turning to `N=C(N)c1ccc(OCCCNCCNCCCOc2ccc(C(=N)N)cc2)cc1` [Example 24, 4-[3-({2-[(3-{4-[amino(imino)methyl]phenoxy}propyl)amino]ethyl}amino)propoxy]benzamidine hydrochloride], the “cumulative survival rate (T/C) of the treatment group to the control group” value was found to be 180.

In a further experiment the test system is Candida albicans TIMM 1623. As to the kind of experiment: Therapeutic effect on mouse systemic Candida albicans infection, 7 subcutaneous doses, survival to day 28. It counts as in vivo, ICR male mice. Particulars: 0.2 ml of 0.01 mg/ml solution subcutaneously once a day, 7 times in total; five mice per group; control group all died. The protocol:
Candida albicans TIMM 1623 was cultured at 30° C. overnight on a Sabouraud agar plate medium (Eiken Chemical Co., Ltd.), and the cultured fumgus was suspended in a sterilized physiological saline solution. Thus, a fungal solution for infection, having a concentration of approximately 10^7 cells/ml, was prepared. 0.2 ml of this fungal solution was inoculated into the tail vein of each of five ICR male mice (4-week-old, body weight of 20±1 g). 2 hours after the infection, 0.2 ml of a solution, which had been prepared by dissolving a test compound into a sterilized physiological saline solution and adjusting the concentration at 0.01 mg/ml, was administered once into the dorsal subcutis of each mouse. From the following day, the same solution was administered thereto once a day for 6 days. Thus, the above solution was administered into the dorsal subcutis of the mice 7 times in total. To mice of a control group, an equal amount of a sterilized physiological saline solution was administered. Viability of the mice was observed until the 28th day after the infection.
Turning to `N=C(N)c1ccc(OCCCN2CCN(CCCOc3ccc(C(=N)N)cc3)CC2)cc1` [Example 40-2, 4-{3-[4-(3-{4-[amino(imino)methyl]phenoxy}propyl)-1-piperazinyl]propoxy}benzamidine hydrochloride], the “survival ratio on the 28th day after the infection” value is on record as 4/5.

For the molecule `N=C(N)c1ccc(OCCCN2CCC(CCOc3ccc(C(=N)N)cc3)CC2)cc1` [Example 56, 4-{2-[1-(3-{4-[amino(imino)methyl]phenoxy}propyl)-4-piperidinyl]ethoxy}benzamidine Hydrochloride], the “survival ratio on the 28th day after the infection” value was 4/5. The same measure, in the same setting: next, `N=C(N)c1ccc(OCCCNCCNCCCOc2ccc(C(=N)N)cc2)cc1` [Example 24, 4-[3-({2-[(3-{4-[amino(imino)methyl]phenoxy}propyl)amino]ethyl}amino)propoxy]benzamidine hydrochloride]: 3/5.

The values are drawn from patent US7291617B2, “Arylamidine derivative or salt thereof” (Toyama Chemical Co., Ltd., priority 2003, dated 2007).
